{"source": "ChEMBL document CHEMBL1143685", "about": "“Sulfated glucosamine inhibits MMP-2 and MMP-9 expressions in human fibrosarcoma cells” (Bioorg Med Chem, 2007)", "key": {"[1]": {"test_system": "MRC5", "assay": "Toxicity against human MRC5 cells assessed as cell viability after 24 hrs by MTT assay", "assay_type": "cell-based", "settings": "mrc5, 24 h"}, "[2]": {"test_system": "HT-1080", "assay": "Toxicity against human HT1080 cells assessed as cell viability after 24 hrs by MTT assay", "assay_type": "cell-based", "settings": "ht-1080, 24 h"}, "[3]": {"test_system": "HT-1080", "assay": "Inhibition of MMP9 expression in human HT1080 cells", "assay_type": "functional, cell-based"}, "[4]": {"test_system": "HT-1080", "assay": "Inhibition of NF-kappaB promoter activity in human HT1080 cells", "assay_type": "functional, cell-based"}, "[5]": {"test_system": "HT-1080", "assay": "Inhibition of PMA-stimulated activator protein-1 promotor activity in human HT1080 cells", "assay_type": "functional, cell-based"}, "[6]": {"test_system": "HT-1080", "assay": "Inhibition of MMP2 expression in human HT1080 cells", "assay_type": "functional, cell-based"}}, "note": "Activity calls are given as the source filed them. No cut-off for these calls is given here."}
{"smiles": "N[C@@H](C=O)[C@@H](O)[C@H](O)[C@H](O)COS(=O)(=O)O", "values": [{"measurement": "Activity", "setting": "[1]", "result": "Active"}, {"measurement": "Activity", "setting": "[2]", "result": "Active"}, {"measurement": "Activity", "setting": "[3]", "result": "Dose-dependent effect"}, {"measurement": "Activity", "setting": "[4]", "result": "Dose-dependent effect"}, {"measurement": "Activity", "setting": "[5]", "result": "inactive"}, {"measurement": "Activity", "setting": "[6]", "result": "Dose-dependent effect"}]}
